Values quoted from earlier work in PMC4546577 (ACS chemical biology, 2015).

Conditions: sulphydryl group in MeaF; ref [69] PerrinDD, Dissociation constants of organic bases in aqueous solution, 1965

pKa (sulphydryl group): ~ 8.5
SMILES: N[C@@H](Cc1cccc(NCCS)c1)C(=O)O [MeaF, 3-(2-mercapto-ethyl)amino-phenylalanine]
